Reference: US12458666B2 (DOUBLE BOND PHARMACEUTICALS AB, priority 2019, dated 2025)
Like-named read-outs stand apart in the source and are kept apart here.

Assays:
[1] = cited from earlier work; for Ferritin level after treatment: HF, ejection fraction <40% and anaemia
[2] = cited from earlier work
[3] = Method: (§1) The study was planned as an open pilot study without placebo control. The study was performed at the research unit at the department of Medicine-Geriatric, a special heart failure case record with laboratory data was filed before the start of the study, after six weeks and after 3 months (±2 weeks) at the end of study. Adverse reactions and side effects were registered at each visit.
[4] = for median ferritin level: thirteen patients who took study medication according to protocol for 12 weeks, baseline 42 (32-57.5); for Hemoglobin / hsCRP / Hepcidin / Transferrin / Iron / TSAT (transferrin saturation) / Ferritin: intention to treat, 100 mg tablet orally twice a day; for Hemoglobin: 20 patients, baseline 144; for hsCRP: baseline 2.0; for Hepcidin: baseline 2.5; for Transferrin: baseline 2.6; for Iron: baseline 13.5; for TSAT (transferrin saturation): baseline 20; for Ferritin: baseline 47
Method: Most of these patients were screened during the year 2018 until January 2019 were the target population. […] These 42 patients defined by inclusion and exclusion criteria for participation were called by phone and informed about the study. After having given oral and written consent to participate blood sampling was performed to confirm or reject the presence of non-anemic ID.
• All patients with a case record diagnosis of HF, both those with preserved EF or reduced EF were potentially eligible, provided there were no contraindications to participate. • The diagnosis of HF was on symptoms and an ECHO verified reduction of cardiac function, systolic and/or diastolic dysfunction. Those with an EF=<40% were classified as HFrEF and those with EF>40% as preserved HF.
as §1
Inofer® is an oral product against ID in a form of film-coated tablets. […] The patients are given one tablet ( )twice a day during a period of at least three months.
1 tablet was taken in the morning and 1 tablet was taken in the evening at bedtime for at least 3 months. The tablet was not taken with food.
Blood sampling was performed according to local and current guidelines. Blood was centrifuged, divided into aliquots and stored at minus 80° C. in a safe deposit box, Biobank Västerbotten, until analysis. Hemoglobin, CRP, ferritin, serum iron, TSAT and hepcidin were analyzed before start, at 6 weeks and 3 months after treatment.
Continuous variables are presented as means ±standard deviation for normally distributed values, median and interquartile range for skewed variables, and numbers and percentages for categorical variables. Due to skewed variables for ferritin and TSAT non-parametric test was used for related or independent data. Data were analysed using IBM SPSS Software version 24 (IBM Corp. Chicago, Illinois, USA).

[5] = irrespective if iron was given orally or intravenously; cited from earlier work
[6] = long-term intravenous therapy; cited from earlier work
[7] = percentage of patients exhibiting the symptom in the study
[8] = after oral iron succinate treatment

Question: With iron sucrose as the compound, how does the “Ferritin level after treatment” value ([1]; intravenous 200 mg per week for 5 weeks, from 167±149) read?
Answer: 293 ± 270 ng/mL

Question: For iron polysaccharide, which “uptake in iron deposits” value ([2]; high dose oral, 16 weeks, HFrEF) is on record?
Answer: marginal uptake

Question: And the “exercise capacity over 16 weeks” value ([2]; high dose oral, HFrEF)?
Answer: did not improve exercise capacity

Question: And the TSAT increase ([2]; oral 150 mg twice daily for 16 weeks, HFrEF (<40%) and iron deficiency, CI −3 to 7, placebo 0, p=0.003)?
Answer: 2%

Question: And the Ferritin increase ([2]; oral 150 mg twice daily for 16 weeks, HFrEF (<40%) and iron deficiency, CI −8 to 38, placebo 1)?
Answer: 18 ng/mL

Question: With `O=C([O-])CCC(=O)[O-].[Fe+2]` [iron succinate, ferrous succinate] as the compound, how does the “patients who stopped study medication because of vomiting or diarrhea” value ([3]; of 20 patients) read?
Answer: Three

Question: What about the “patients who stopped study medication before EOS” value ([3]; of 20 patients) of the same compound?
Answer: four

Question: What about the “Breathlessness, %” value [3, 7] of the same compound?
Answer: 90%

Question: What about the “Constipation, %” value [3, 7] of the same compound?
Answer: 20%

Question: What about the “Diarrhea, %” value [3, 7] of the same compound?
Answer: 5%

Question: And the “Stomic pain, %” value [3, 7]?
Answer: 10%

Question: What about the “Tiredness, %” value [3, 7] of the same compound?
Answer: 80%

Question: What about the “increase of ferritin levels in patients with HFpEF compared with HFrEF” value [4, 8] of the same compound?
Answer: about the same magnitude

Question: What about the “uptake (levels) in females compared with males” value [4, 8] of the same compound?
Answer: increased rather equally

Question: And the median ferritin level ([4]; at 6 weeks)?
Answer: 83 (61-110.5) μg/L

Question: What about the median ferritin level ([4]; at 12 weeks) of the same compound?
Answer: 87 µg/L

Question: What about the Hemoglobin ([4]; median at 6 weeks) of the same compound?
Answer: 138 g/L

Question: What about the hsCRP ([4]; median at 6 weeks) of the same compound?
Answer: 2.0 mg/L

Question: What about the Hepcidin ([4]; median at 6 weeks, p=0.006) of the same compound?
Answer: 4.8 nmol/L

Question: And the Transferrin ([4]; median at 6 weeks, p=0.038)?
Answer: 2.4 g/L

Question: And the Iron ([4]; median at 6 weeks)?
Answer: 16.5 µmol/L

Question: And the “TSAT (transferrin saturation)” value ([4]; median at 6 weeks, p=0.046)?
Answer: 27%

Question: And the Ferritin ([4]; median at 6 weeks, p=0.009)?
Answer: 78 µg/L

Question: And the Hemoglobin ([4]; median at 12 weeks)?
Answer: 142 g/L

Question: What about the hsCRP ([4]; median at 12 weeks) of the same compound?
Answer: 1.9 mg/L

Question: And the Hepcidin ([4]; median at 12 weeks, p=0.026)?
Answer: 4.2 nmol/L

Question: What about the Transferrin ([4]; median at 12 weeks, p=0.009) of the same compound?
Answer: 2.3 g/L

Question: What about the Iron ([4]; median at 12 weeks) of the same compound?
Answer: 16.0 µmol/L

Question: What about the “TSAT (transferrin saturation)” value ([4]; median at 12 weeks, p=0.043) of the same compound?
Answer: 25%

Question: And the Ferritin ([4]; median at 12 weeks, p=0.001)?
Answer: 85 µg/L

Question: And the “TSAT at EOS” value ([4]; one patient who stopped study medication after 3.5 weeks, baseline 16)?
Answer: 21%

Question: What about the “ferritin level at EOS” value ([4]; one patient who stopped study medication after 3.5 weeks, baseline 198) of the same compound?
Answer: 237 µg/L

Question: What about the “increase of ferritin level from baseline to EOS” value (“increase … to EOS” for short) ([4]; one patient who took only one tablet per day for 2.5 weeks) of the same compound?
Answer: 38%

Question: What about the “increase … to EOS” value ([4]; one patient who took only one tablet per day for 6 weeks) of the same compound?
Answer: 174%

Question: What about the “increase … to EOS” value ([4]; one patient who took only one tablet per day for 7.5 weeks) of the same compound?
Answer: 95%

Question: What about the “uptake compared to other iron compounds” value [5] of the same compound?
Answer: most favourable uptake

Question: Which “symptomatic and morbidity effects in patients with HF” value [6] does the source give for ferric carboxymaltose here?
Answer: beneficial symptomatic and morbidity effects

Question: Which “increase of TSAT, oral vs. intravenous administration of iron” value ([1]; oral 200 mg 3 times a day compared with intravenous iron sucrose) does the source give for `O=S(=O)([O-])[O-].[Fe+2]` [ferrous sulphate] here?
Answer: less

Question: What about the “Ferritin level after treatment” value ([1]; oral 200 mg 3 times a day, from 115±141) of the same compound?
Answer: 218 ± 189 ng/mL
